Source: patent US12077503B2, “Substituted cyclic amides and their use as herbicides” (FMC CORPORATION, priority 2015, dated 2024)
Like-named read-outs stand apart in the source and are kept apart here.

How the values were obtained:
Type in all cases: in vivo
[1] = tested on: Galium (catchweed bedstraw, Galium aparine); assay: Test A postemergence; details: Galium, post-emergence, 240 h; for pest or weed control at 125 g/ha: 125 g ai/ha, read-out: Galium plant response rating (0 to 100 scale); for pest or weed control at 500 g/ha: 500 g ai/ha
Outline: (§1)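 Visual injury, scored on a 0–100 scale relative to untreated controls, was recorded about 10 d after application. Treatments were a preemergence soil spray over planted seeds or a postemergence spray on plants at the one- to two-leaf stage, 2 to 10 cm tall, all in loam soil–sand blend in the greenhouse.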

[2] = tested on: Kochia (Kochia scoparia); assay: Test A postemergence; details: Bassia scoparia, post-emergence, 240 h; for pest or weed control at 125 g/ha: 125 g ai/ha, read-out: Kochia plant response rating (0 to 100 scale); for pest or weed control at 500 g/ha: 500 g ai/ha
Outline: as §1

[3] = tested on: barnyardgrass (Echinochloa crus-galli); assay: Test A postemergence; details: Echinochloa crus-galli, post-emergence, 240 h; for pest or weed control at 125 g/ha: 125 g ai/ha; for pest or weed control at 500 g/ha: 500 g ai/ha
Outline: as §1

[4] = tested on: blackgrass (Alopecurus myosuroides); assay: Test A postemergence; details: Alopecurus myosuroides, post-emergence, 240 h; for pest or weed control at 125 g/ha: 125 g ai/ha, read-out: Blackgrass plant response rating (0 to 100 scale); for pest or weed control at 500 g/ha: 500 g ai/ha
Outline: as §1

[5] = tested on: corn (Zea mays); assay: Test A postemergence; details: Zea mays, post-emergence, 240 h; for plant injury at 125 g/ha: 125 g ai/ha, read-out: Corn plant response rating (0 to 100 scale)
Outline: as §1

[6] = tested on: giant foxtail (Setaria faberii); assay: Test A postemergence; details: Setaria faberi, post-emergence, 240 h; for pest or weed control at 125 g/ha: 125 g ai/ha, read-out: Foxtail, Giant plant response rating (0 to 100 scale); for pest or weed control at 500 g/ha: 500 g ai/ha
Outline: as §1

[7] = tested on: pigweed (Amaranthus retroflexus); assay: Test A postemergence; details: Amaranthus retroflexus, post-emergence, 240 h; for pest or weed control at 125 g/ha: 125 g ai/ha, read-out: Pigweed plant response rating (0 to 100 scale); for pest or weed control at 500 g/ha: 500 g ai/ha
Outline: as §1

[8] = tested on: ragweed (common ragweed, Ambrosia elatior); assay: Test A postemergence; details: Ambrosia artemisiifolia, post-emergence, 240 h; for pest or weed control at 125 g/ha: 125 g ai/ha, read-out: Ragweed plant response rating (0 to 100 scale); for pest or weed control at 500 g/ha: 500 g ai/ha
Outline: as §1

[9] = tested on: ryegrass, Italian (Italian ryegrass, Lolium multiflorum); assay: Test A postemergence; details: Lolium multiflorum, post-emergence, 240 h; for pest or weed control at 125 g/ha: 125 g ai/ha, read-out: Ryegrass, Italian plant response rating (0 to 100 scale); for pest or weed control at 500 g/ha: 500 g ai/ha
Outline: as §1

[10] = tested on: wheat (Triticum aestivum); assay: Test A postemergence; details: Triticum aestivum, post-emergence, 240 h; for plant injury at 125 g/ha: 125 g ai/ha, read-out: Wheat plant response rating (0 to 100 scale)
Outline: as §1

[11] = tested on: barnyardgrass (Echinochloa crus-galli); assay: Test B flooded paddy test; details: Echinochloa crus-galli, 250 g ai/ha, Flood
Outline: (§2)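 Rating scale 0–100 (visual, vs untreated controls) after a 13–15 d greenhouse period; application to the flood layer, 3 cm above soil and maintained; plants at 2-leaf stage when treated.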

[12] = tested on: ducksalad (Heteranthera limosa); assay: Test B flooded paddy test; details: Heteranthera limosa, 250 g ai/ha, Flood
Outline: as §2

[13] = tested on: rice (Oryra sativa); assay: Test B flooded paddy test; details: Oryza sativa, 250 g ai/ha, Flood
Outline: as §2

[14] = tested on: sedge, umbrella (small-flower umbrella sedge, Cyperus difformis); assay: Test B flooded paddy test; details: Cyperus difformis, 250 g ai/ha, Flood
Outline: as §2

[15] = postemergence, visual injury vs untreated controls after approx. 10 d, 0 = no effect, 100 = complete control
[16] = Postemergence, visual rating about 10 d after treatment

O=C1NC[C@H](c2cccc(C(F)(F)F)c2)C1C(=O)Nc1c(F)cccc1CO (some centres unmarked) [Compound 1240]
0%: pest or weed control at 125 g/ha [1, 15] | pest or weed control at 500 g/ha ([1]; postemergence, 0 to 100 scale, 0 is no effect, 100 is complete control, read-out: Galium plant response rating) | pest or weed control at 125 g/ha [2, 15] | pest or weed control at 500 g/ha ([2]; postemergence, 0 to 100 scale, 0 is no effect, 100 is complete control, read-out: Kochia plant response rating) | pest or weed control at 125 g/ha ([3]; postemergence, visual injury vs untreated controls after approx. 10 d, 0 = no effect, 100 = complete control, read-out: Barnyardgrass plant response rating (0 to 100 scale)) | pest or weed control at 500 g/ha ([3]; postemergence, 0 to 100 scale, 0 is no effect, 100 is complete control, read-out: Barnyardgrass plant response rating) | pest or weed control at 125 g/ha [4, 15] | pest or weed control at 500 g/ha ([4]; postemergence, 0 to 100 scale, 0 is no effect, 100 is complete control, read-out: Blackgrass plant response rating) | plant injury at 125 g/ha [5, 15] | plant injury at 500 g/ha ([5]; 500 g ai/ha, postemergence, 0 to 100 scale, 0 is no effect, 100 is complete control, read-out: Corn plant response rating) | pest or weed control at 125 g/ha [6, 15] | pest or weed control at 500 g/ha ([6]; postemergence, 0 to 100 scale, 0 is no effect, 100 is complete control, read-out: Foxtail, Giant plant response rating) | pest or weed control at 125 g/ha [7, 15] | pest or weed control at 500 g/ha ([7]; postemergence, 0 to 100 scale, 0 is no effect, 100 is complete control, read-out: Pigweed plant response rating) | pest or weed control at 125 g/ha [8, 15] | pest or weed control at 500 g/ha ([8]; postemergence, 0 to 100 scale, 0 is no effect, 100 is complete control, read-out: Ragweed plant response rating) | pest or weed control at 125 g/ha [9, 15] | pest or weed control at 500 g/ha ([9]; postemergence, 0 to 100 scale, 0 is no effect, 100 is complete control, read-out: Ryegrass, Italian plant response rating) | plant injury at 125 g/ha [10, 15] | pest or weed control at 250 g/ha ([11]; 0 to 100 scale where 0 is no effect and 100 is complete control, read-out: Barnyardgrass plant response rating) | pest or weed control at 250 g/ha ([12]; 0 to 100 scale where 0 is no effect and 100 is complete control, read-out: Ducksalad plant response rating) | pest or weed control at 250 g/ha ([13]; 0 to 100 scale where 0 is no effect and 100 is complete control, read-out: Rice plant response rating) | pest or weed control at 250 g/ha ([14]; 0 to 100 scale where 0 is no effect and 100 is complete control, read-out: Sedge, Umbrella plant response rating)

CO[C@]1(C(=O)Nc2cccc(F)c2F)C(=O)N(C)C[C@@H]1c1ccc(C(F)(F)F)cc1 (racemic) [Compound 1334]
90%: pest or weed control at 250 g/ha ([12]; 360 h, visually evaluated after 13 to 15 d, read-out: Plant response rating, Ducksalad (0 to 100 scale where 0 is no effect and 100 is complete control))
50%: pest or weed control at 125 g/ha [1, 16] | pest or weed control at 500 g/ha ([1]; Postemergence, visual injury, 0 to 100 scale (0 no effect, 100 complete control), approx. 10 d, read-out: Plant response rating, Galium) | pest or weed control at 500 g/ha ([3]; Postemergence, visual injury, 0 to 100 scale (0 no effect, 100 complete control), approx. 10 d, read-out: Plant response rating, Barnyardgrass) | pest or weed control at 500 g/ha ([6]; Postemergence, visual injury, 0 to 100 scale (0 no effect, 100 complete control), approx. 10 d, read-out: Plant response rating, Foxtail, Giant)
40%: pest or weed control at 500 g/ha ([7]; Postemergence, visual injury, 0 to 100 scale (0 no effect, 100 complete control), approx. 10 d, read-out: Plant response rating, Pigweed)
0%: pest or weed control at 125 g/ha [2, 16] | pest or weed control at 500 g/ha ([2]; Postemergence, visual injury, 0 to 100 scale (0 no effect, 100 complete control), approx. 10 d, read-out: Plant response rating, Kochia) | pest or weed control at 125 g/ha ([3]; Postemergence, visual rating about 10 d after treatment, read-out: Barnyardgrass plant response rating (0 to 100 scale, 0 no effect, 100 complete control)) | pest or weed control at 125 g/ha [4, 16] | pest or weed control at 500 g/ha ([4]; Postemergence, visual injury, 0 to 100 scale (0 no effect, 100 complete control), approx. 10 d, read-out: Plant response rating, Blackgrass) | plant injury at 125 g/ha [5, 16] | pest or weed control at 125 g/ha [6, 16] | pest or weed control at 125 g/ha [8, 16] | pest or weed control at 125 g/ha [9, 16] | plant injury at 125 g/ha [10, 16] | plant injury at 500 g/ha ([10]; Postemergence, 500 g ai/ha, visual injury, 0 to 100 scale (0 no effect, 100 complete control), approx. 10 d, read-out: Plant response rating, Wheat) | pest or weed control at 250 g/ha ([11]; 360 h, visually evaluated after 13 to 15 d, read-out: Plant response rating, Barnyardgrass (0 to 100 scale where 0 is no effect and 100 is complete control)) | pest or weed control at 250 g/ha ([13]; 360 h, visually evaluated after 13 to 15 d, read-out: Plant response rating, Rice (0 to 100 scale where 0 is no effect and 100 is complete control)) | pest or weed control at 250 g/ha ([14]; 360 h, visually evaluated after 13 to 15 d, read-out: Plant response rating, Sedge, Umbrella (0 to 100 scale where 0 is no effect and 100 is complete control))
20%: pest or weed control at 500 g/ha ([8]; Postemergence, visual injury, 0 to 100 scale (0 no effect, 100 complete control), approx. 10 d, read-out: Plant response rating, Ragweed) | pest or weed control at 500 g/ha ([9]; Postemergence, visual injury, 0 to 100 scale (0 no effect, 100 complete control), approx. 10 d, read-out: Plant response rating, Ryegrass, Italian)
30%: Corn plant response rating (crop injury, 0 = no effect, 100 = complete kill) at 500 g/ha ([5]; Postemergence, 500 g ai/ha, visual injury, 0 to 100 scale (0 no effect, 100 complete control), approx. 10 d) | pest or weed control at 125 g/ha [7, 16]
